Reference: patent US20220348590A1, “CYCLOOXYGENASE-2 INHIBITORS AND USES THEREOF” (The Board Institute, Inc., priority 2019, published 2022)
Values after ≈ are worked out from the molar mass of the structure shown. Where two headings read alike, the source gives them in different places.

How the values were obtained:
ovine COX-1 (oCOX-1) = molecular target: T1, ovine COX-1 (oCOX-1) (Ovis aries, UniProt P05979); assay: LCMS-based COX-1 enzymatic inhibition assay (PGE2 quantification); format: biochemical; conditions: for COX1 10 minutes pge2/pge2d4 area ratio Avg. LLE / COX1 10 minutes pge2 area (counts) Avg. LLE: average LLE
T1 construct: purchased Cayman Chemicals (Ann Arbor, Mich.)
T1 sequence (P05979 25-600): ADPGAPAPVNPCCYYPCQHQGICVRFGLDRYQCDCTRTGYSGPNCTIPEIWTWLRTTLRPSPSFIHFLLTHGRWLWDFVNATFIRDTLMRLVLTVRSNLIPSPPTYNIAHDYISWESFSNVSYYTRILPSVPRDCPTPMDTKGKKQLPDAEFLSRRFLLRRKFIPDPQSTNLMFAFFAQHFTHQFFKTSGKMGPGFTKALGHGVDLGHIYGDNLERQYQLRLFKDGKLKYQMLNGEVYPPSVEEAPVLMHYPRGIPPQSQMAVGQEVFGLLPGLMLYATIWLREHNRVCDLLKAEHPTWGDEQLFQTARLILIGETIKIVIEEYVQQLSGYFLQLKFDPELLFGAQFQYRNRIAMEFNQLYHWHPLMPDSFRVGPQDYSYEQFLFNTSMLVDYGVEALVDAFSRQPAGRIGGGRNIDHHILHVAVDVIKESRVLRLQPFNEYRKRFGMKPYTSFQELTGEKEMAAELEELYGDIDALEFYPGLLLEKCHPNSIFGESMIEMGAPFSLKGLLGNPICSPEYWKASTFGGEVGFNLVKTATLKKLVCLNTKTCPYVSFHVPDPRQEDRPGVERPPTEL
Summary of the method: (§1)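 Ovine COX-1 (0.1 μg) or human recombinant COX2 (0.2 μg) in 100 mM Tris.HCl pH 8.0 with hematin and epinephrine, preincubated with inhibitor 10 min at 37 °C. Reaction with 5 μM arachidonic acid stopped after 2 min with HCl; PGE2 quantified by LC-MS-MS. IC50 from 12 concentrations in triplicate.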

[1] = mouse plasma protein binding (PPB) assay; format: in vitro ADME; conditions: average, read-out: Mouse Plasma Protein Binding % Bound Avg (converted)
Experimental: We have adapted a previously reported cyclooxygenase enzymatic assay utilizing LCMS quantification of PGE2 as the product of COX-1 and COX2 catalyzed conversion of arachidonic acid to evaluate the binding properties of newly synthesized ligands [Cao, 2011]. These optimized and miniaturized (384-well plates) LCMS-based COX-1 and COX2 enzymatic assays enabled us to quickly evaluate newly synthesized ligands for COX2 binding affinity and selectivity vs COX-1. Using a shorter ligand-enzyme incubation time in the LCMS assay (2 minutes vs 10 minutes) also permitted us to prioritize ligands with faster binding kinetics. Considering the relatively slow on-rate kinetics of known coxibs, due to their 3-step binding mechanism [Marnett, 2009], we believe that optimizing this critical parameter will be key to the successful development of a COX2 PET tracer. Using these enzymatic assays, we have evaluated>200 newly synthesized ligands against COX2 and >20 ligands against COX-1. Another critical property necessary for a good PET radiotracer is to have low non-specific binding (NSB) to increase the free fraction and maximize the signal to noise ratio. This property can be evaluated using in-vitro protein binding assays, and we have now evaluated>50 newly synthesized ligands in mouse, rat and human plasma protein binding (PPB) assays as well as >15 ligands in a mouse brain protein binding (BPB) assay.

[2] = Mouse Plasma Protein Stability (% Remaining); format: in vitro ADME; conditions: average
[3] = molecular target: T2, human recombinant COX2 (hCOX2) (UniProt P35354); assay: LCMS-based COX2 enzymatic inhibition assay (PGE2 quantification); format: biochemical; set-up: COX2 2 minutes pge2/pge2d4 area ratio Avg; other: 2 minutes; readout pge2/pge2d4 area ratio; average; COX2 2 minutes pge2/pge2d4 area ratio Avg; LLE; average LLE; COX2 2 minutes pge2 area (counts) Avg; readout pge2 area (counts); other: 2 min; "ovine COX2 (oCOX2), human recombinant COX2 (hCOX2)"; conditions: for COX2 2 minutes pge2/pge2d4 area ratio Avg. LLE / COX2 2 minutes pge2 area (counts) Avg. LLE / COX2 10 minutes pge2 area (counts) Avg. LLE: average LLE; for IC50: average
T2 sequence (P35354 1-604): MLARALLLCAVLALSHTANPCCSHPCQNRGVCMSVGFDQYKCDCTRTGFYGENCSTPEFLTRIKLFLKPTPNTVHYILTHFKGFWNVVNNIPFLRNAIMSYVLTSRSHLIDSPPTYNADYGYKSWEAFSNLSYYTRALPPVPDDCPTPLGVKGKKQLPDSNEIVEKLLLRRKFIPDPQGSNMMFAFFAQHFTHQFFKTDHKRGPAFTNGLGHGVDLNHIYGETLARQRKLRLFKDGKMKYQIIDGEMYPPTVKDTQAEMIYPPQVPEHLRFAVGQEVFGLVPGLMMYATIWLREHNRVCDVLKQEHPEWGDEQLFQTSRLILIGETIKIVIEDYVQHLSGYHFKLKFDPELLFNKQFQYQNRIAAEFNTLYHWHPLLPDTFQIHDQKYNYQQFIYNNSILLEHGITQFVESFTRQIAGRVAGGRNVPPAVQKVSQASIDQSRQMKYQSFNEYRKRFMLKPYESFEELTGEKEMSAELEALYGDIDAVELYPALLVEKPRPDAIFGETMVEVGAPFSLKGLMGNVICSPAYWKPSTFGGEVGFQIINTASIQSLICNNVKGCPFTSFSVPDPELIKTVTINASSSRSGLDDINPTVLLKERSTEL
Summary of the method: as §1

PBS Solubility (no DMSO) = format: physicochemical; conditions: aqueous buffer, thermodynamic from solid, average
[4] = Human Microsome Stability; format: in vitro ADME; conditions: human microsomes
[5] = 10 minutes, readout pge2/pge2d4 area ratio
[6] = 10 minutes, readout pge2/pge2d4 area ratio, average, read-out: COX1 10 minutes pge2/pge2d4 area ratio Avg. IC50
[7] = 10 minutes, readout pge2 area (counts)
[8] = 10 minutes, readout pge2 area (counts), average, read-out: COX1 10 minutes pge2 area (counts) Avg. IC50
[9] = 2 minutes, readout pge2/pge2d4 area ratio
[10] = 2 minutes, readout pge2/pge2d4 area ratio, read-out: COX2 2 minutes pge2/pge2d4 area ratio Avg. IC50
[11] = 2 minutes, readout pge2 area (counts)
[12] = 2 minutes, readout pge2 area (counts), read-out: COX2 2 minutes pge2 area (counts) Avg. IC50
[13] = 10 minutes, readout pge2 area (counts), read-out: COX2 10 minutes pge2 area (counts) Avg. IC50

COX1 10 minutes pge2/pge2d4 area ratio Avg. LLE (ovine COX-1 (oCOX-1); [5]) | IC50 (ovine COX-1 (oCOX-1); [6]) [nM] | COX1 10 minutes pge2 area (counts) Avg. LLE (ovine COX-1 (oCOX-1); [7]) | IC50 (ovine COX-1 (oCOX-1); [8]) [nM] | fraction unbound [1] | Mouse Plasma Protein Stability % Remaining Avg [2] [%] | COX2 2 minutes pge2/pge2d4 area ratio Avg. LLE [3, 9] | IC50 [3, 10] [nM] | COX2 2 minutes pge2 area (counts) Avg. LLE [3, 11] | IC50 [3, 12] [nM] | solubility (PBS Solubility (no DMSO)) [µM] | COX2 10 minutes pge2 area (counts) Avg. LLE [3, 7] | IC50 [3, 13] [nM] | Human Microsome Stability % Remaining Avg [4] [%] | Structure (SMILES) | IC50 (ovine COX-1 (oCOX-1)) [nM]
2.125 | 8610 | 2.0112 | 11700 | 0.001 | 36.7 | 4.852 | 25 | 4.799 | 27.6 | – | – | – | – | C[C@H](Oc1cncc(-c2ccc(S(C)(=O)=O)cc2)n1)c1cccs1 (single isomer, unassigned) [Compound 53] | –
4.28 | 1100 | 4.323 | 913 | 0.015 | 94.9 | 6.484 | 5.55 | 6.512 | 5.38 | 8.5 (≈ 2.95 µg/mL) | – | – | – | NS(=O)(=O)c1ccc(-c2cncc(OCc3cccs3)n2)cc1 [Compound 3] | –
2.392 | 3140 | 2.308 | 4430 | 0.002 | 103.7 | 4.93 | 9.99 | 5.018 | 8.22 | – | – | – | – | CS(=O)(=O)c1ccc(-c2cncc(SCc3cccs3)n2)cc1 [Compound 18] | –
3.094 | 2930 | 3.234 | 2230 | 0.015 | 109.5 | 5.185 | 23.9 | 5.211 | 23.2 | – | 6.088 | 3.57 | – | CN(Cc1cccs1)c1cncc(-c2ccc(S(C)(=O)=O)cc2)n1 [Compound 51] | –

The next lines start with the compound.

Structure (SMILES) | COX1 10 minutes pge2/pge2d4 area ratio Avg. LLE (ovine COX-1 (oCOX-1); [5]) | IC50 (ovine COX-1 (oCOX-1); [6]) [nM] | COX1 10 minutes pge2 area (counts) Avg. LLE (ovine COX-1 (oCOX-1); [7]) | IC50 (ovine COX-1 (oCOX-1); [8]) [nM] | fraction unbound [1] | Mouse Plasma Protein Stability % Remaining Avg [2] [%] | COX2 2 minutes pge2/pge2d4 area ratio Avg. LLE [3, 9] | IC50 [3, 10] [nM] | COX2 2 minutes pge2 area (counts) Avg. LLE [3, 11] | IC50 [3, 12] [nM] | solubility (PBS Solubility (no DMSO)) [µM] | COX2 10 minutes pge2 area (counts) Avg. LLE [3, 7] | IC50 [3, 13] [nM] | Human Microsome Stability % Remaining Avg [4] [%] | IC50 (ovine COX-1 (oCOX-1)) [nM]
CCOc1ncc(NCc2cccs2)nc1-c1ccc(S(C)(=O)=O)cc1 [Compound 25] | 1.374 | – | 1.374 | – | 0.015 | 93.1 | 5.041 | 11.8 | 4.857 | 19.6 | – | – | – | – | 52000
Cc1ccsc1CNc1cccc(-c2ccc(S(C)(=O)=O)cc2)n1 [Compound 7] | 0.564 | – | 0.564 | – | 0.015 | 97.8 | 4.522 | 6.36 | 4.509 | 7.11 | – | – | – | – | 52000
COc1cc(NCc2cccs2)cc(-c2ccc(S(C)(=O)=O)cc2)n1 [Compound 32] | – | – | – | – | 0.015 | 100.9 | 4.433 | 15.5 | 4.493 | 14 | – | 5.338 | 2.5 | – | –
CS(=O)(=O)c1ccc(-c2ccc3ccn(Cc4ccoc4)c3n2)cc1 [Compound 26] | 0.9493 | 11400 | 0.6431 | 16700 | 0.018 | 97.5 | 3.778 | 12 | 3.652 | 16.6 | – | – | – | 43 | –
